{"source": "patent US8865909B2", "about": "“Anti-biofilm agents” (Yissum Research Development Company of the Hebrew …, priority 2008, dated 2014)", "key": {"[1]": {"system": "Candida albicans (ATCC 90028)", "experiment": "C. albicans biofilm formation, XTT metabolic reduction assay", "assay_type": "cell-based", "method": "Candida albicans (ATCC 90028) was used to study the anti-biofilm formation activity of exemplary ABF agents according to embodiments of the present invention.\nThe C. albicans strain was propagated in yeast peptone dextrose (YPD) medium (1% wt/vol yeast extract, 2% wt/vol peptone, 2% wt/vol dextrose). Batches of medium (30 ml in 125 ml Erlenmeyer flask) were inoculated with material from Sabouraud dextrose agar (SDA) plates containing freshly grown C. albicans and incubated overnight in an orbital shaker (200 rpm) at 30° C. under aerobic conditions. C. albicans grew in the budding-yeast phase under these conditions. Cells were harvested and washed twice in sterile phosphate-buffered saline (PBS) (Oxoid Ltd, Basingstoke, Hampshire, UK). Thereafter the cells were resuspended in RPMI 1640 supplemented with L-glutamine and buffered with morpholinepropanesulfonic acid (MOPS) (Sigma Chemical Co., St. Louis, Mo.) and adjusted to the desired density after counting with a hematocytometer.\nBiofilms of C. albicans were formed in the wells on commercially available presterilized, polystyrene, flat-bottomed, 96-well microtiter plates (Nunc—Nunclon™ Surface, Roskilde, Denmark). Biofilms were formed by pipetting 100 μl of the standardized cell suspensions (5×10^6 cells/ml) into selected wells of the microtiter plate and incubating the plate for 72 hours at 37° C. After 24 hours and 48 hours of the biofilm formation, the medium was replaced by fresh RPMI 1640 medium.\nWorking concentrations of farnesol (300 μM; 66 μg/ml) and the exemplary ABF agents TZD10 and TZD11 (200 μg/ml) were prepared in RPMI 1640 by using the stock solutions. […]\nThe effect of the compounds on biofilm formation was measured by using a metabolic reduction assay (XTT kit). […] The colorimetric change (a reflection of the metabolic activity of the biofilm) was measured with a microtiter plate reader at 492 nm. The anti-biofilm formation activity effect of the tested agents was expressed as the percentage of the optical density (OD) of the treated wells compared to that of control (untreated) wells for the XTT assays. […]"}, "[2]": {"system": "Candida albicans (ATCC 90028) preformed biofilm", "experiment": "C. albicans preformed (mature) biofilm, XTT reduction assay", "assay_type": "cell-based", "settings": "for activity on the preformed biofilm: 24 hours on 48-hour biofilm", "method": "The effect of the compounds on biofilm formation was measured by using a metabolic reduction assay (XTT kit). Briefly, 100 μl of the XTT reaction solution (Biological Industries, Israel Beit Haemek Ltd.) was added to each well, and microtiter plate was then incubated in the dark for 2 hours at 37° C. The colorimetric change (a reflection of the metabolic activity of the biofilm) was measured with a microtiter plate reader at 492 nm. The anti-biofilm formation activity effect of the tested agents was expressed as the percentage of the optical density (OD) of the treated wells compared to that of control (untreated) wells for the XTT assays. Light microscopic examination of biofilms formed in microtiter plates was performed in parallel by using an inverted microscope.\nC. albicans biofilm was formed during 48 hours at 37° C. on the surfaces of microtiter plates by using the protocol described hereinabove, and the tested ABF agents were then added to the preformed biofilm. Following biofilm formation the spent medium and the nonadherent cells were removed by washing the biofilms three times in sterile PBS. The tested compounds, the ABF agent at 25, 50, 100 μg/ml, fluconazole at 31.25, 62.5, 125 μg/ml, in fresh RPMI 1640—farnesol at 150 μM (33 μg/ml), were added to selected wells of the microtiter plates. In addition, the effect of combination of farnesol (33 μg/ml) with fluconazole (31.25 μg/ml) and the ABF agent (25 or 50 μg/ml) with fluconazole (31.25 μg/ml) was examined on preformed biofilms. The plates were then incubated for 24 hours at 37° C. The effect of the compounds on pre-formed biofilms was then estimated by using the XTT reduction assay as described hereinabove."}}, "data": [{"compound": "CC(C)=CCC/C(C)=C/CC/C(C)=C/CO", "note": "[farnesol]", "values": [{"measurement": "reduction in the metabolic activity of the yeast cells (XTT)", "setting": "[1]; 33 μg/ml, 72 hours", "result": 43, "unit": "%"}, {"measurement": "additive effect of combination with fluconazole compared to farnesol alone", "setting": "[1]; removed after 48 hours, fluconazole 31.25 μg/ml for another 24 hours", "result": "did not show any additive effect"}, {"measurement": "activity on the preformed biofilm", "setting": "[2]", "result": "no activity"}, {"measurement": "additive anti-biofilm effect of adding fluconazole", "setting": "[2]; farnesol 33 μg/ml + fluconazole 31.25 μg/ml, pre-formed biofilm", "result": "no additive anti-biofilm effect"}]}, {"compound": "OC(Cn1cncn1)(Cn1cncn1)c1ccc(F)cc1F", "note": "[fluconazole]", "values": [{"measurement": "reduction in the metabolic activity (XTT), biofilm formation", "setting": "[1]; 31-125 μg/ml, 72 hours", "result": "up to 77%"}, {"measurement": "activity on the preformed biofilm", "setting": "[2]", "result": "no activity"}]}]}
